Source: a melting point compilation (Tetko et al.; mined from patent text by program, amines drawn as free bases though some values may be those of a salt)

Point of comparison: `NCc1cc(-c2ccccc2)no1`, melting point 50 °C. Against it:
- CCCCc1ccc(NC(N)=S)cc1 — higher, 123 to 125 °C
- Cc1oc(-c2ccccc2)nc1COc1cc(COc2ncccc2CO)on1 — higher, 136 to 137 °C
- C=C(CC(Cl)(Cl)Cl)c1nc(Cl)ccc1Cl — higher, 71 to 74 °C
- CCc1cc2c(s1)-n1c(nnc1CNC(=O)Nc1cccc(C)c1)CN=C2c1ccccc1Cl — higher, 260 to 262 °C
- COc1cc(NC(=O)NC2CC(O)CC2N2CCC(Cc3ccc(Cl)cc3)CC2)cc(OC)c1OC (centres undefined) — higher, 81 to 84 °C
- CC(=O)OCc1c(C(=O)C(=O)O)c2cc(OCc3ccccc3)ccc2n1Cc1ccc(C(C)(C)C)cc1 — higher, 145 to 146 °C
- Clc1ncnc2c1ncn2CCCN1CCC(COc2ccccc2)CC1 — higher, 95 to 96 °C
- COC(=O)c1[nH]c2c(C)ccc(C)c2c1-c1nc2ccccc2s1 — higher, 193 to 194 °C
- CC(=O)OCCC1CCc2c(C3=C(c4cn(C)c5ccccc45)C(=O)OC3=O)c3ccccc3n2C1 (centres undefined) — higher, 182 to 184 °C
- CC(C)(C)OC(=O)Nc1ccccc1NC(=O)c1ccc(C(=O)Nc2cccc(Nc3nc(-c4cccnc4)cs3)c2)s1 — higher, 198 °C
- Clc1ccc(-c2coc3ccc(Br)cc23)c(Cl)c1 — higher, 116 to 117 °C
- CC(NC(=O)C(=O)c1c[nH]c2ccc(Br)cc12)c1c[nH]c2ccc(Br)cc12 (centres undefined) — higher, 141 °C
- Cc1cc(C)c2c(c1C)OC(C)(C)C2 — lower, 47 °C
- Nc1ccc(S(=O)(=O)c2cc(C3=CCCCC3)nc(N3CCCC3)c2)cc1 — higher, 237 to 238 °C
- O=C(O)Cc1c(C(=O)c2ccc(-c3cccs3)cc2)[nH]c2cc(Cl)ccc12 — higher, 246 to 249 °C
- Cc1cccc(NC(=O)c2cc(Cl)cc(C)n2)n1 — higher, 130 °C
- COCCOc1cc(OCCOC)c2c(=O)[nH]c(-c3cc(C)nc(C)c3)nc2c1 — higher, 150 to 151 °C
- COc1cccc(CC(=O)O)c1OCCCc1cc(C(C)C)nn1Cc1ccc(Cl)cc1Cl — higher, 101 to 102 °C
- Cn1ccnc1N1CCN(CC(=O)c2ccc(NS(C)(=O)=O)cc2)CC1 — higher, 164 to 165 °C
- Cc1noc(C)c1Cn1cc(NC(=O)Cc2ccccc2)cn1 — higher, 106 to 108 °C
- CCCOc1cc(C(=O)O)cc([N+](=O)[O-])c1C(=O)c1ccccc1 — higher, 160 to 162 °C
- O=C(OCc1ccccc1)c1cc2cc(OCc3ccccc3)ccc2cc1OCc1ccccc1 — higher, 99 to 102 °C
- COc1cc(OC)nc(OC2C(=O)OCC2(C)C)n1 (centres undefined) — higher, 139 to 142 °C
- O=C(Nc1cccc(-c2c(-c3ccccc3C(F)(F)F)cnc3c(C(F)(F)F)cccc23)c1)Nc1ccccc1Cl — higher, 230 to 232 °C
- COC(=O)CCc1conc1-c1ccc(Cl)c(F)c1 — higher, 57 to 58 °C
- CCOC(=O)C=CC(=O)Nc1ccc(Cl)cc1C(=O)c1ccccc1Cl — higher, 113 to 114 °C
- CC(=O)OC1C(CO)OC(n2cnc3c(N)ncnc32)C1O (centres undefined) — higher, 195 to 201 °C
- N=C(N)c1ccc2cc(OC(=O)C3CCC3)ccc2c1 — higher, 225 to 230 °C
- CC(=O)S[C@@H](CC1CCCCC1)C(=O)O — higher, 159 to 161 °C
- N#Cc1cccc(-c2ccco2)n1 — higher, 90.2 to 90.3 °C
- CC1(C)Cc2cc3c(cc2O1)OCC31C(=O)N(CC(=O)Nc2ccccc2F)c2cccc(-c3cncnc3)c21 (centres undefined) — higher, > 250 °C
- COC(=O)C(Cc1ccc([N+](=O)[O-])c(OCc2ccccc2)c1)NC(=O)OC(C)(C)C (centres undefined) — higher, 104 to 105 °C
- N#Cc1nn(-c2c(Cl)cc(C(F)(F)F)cc2Cl)c(N)c1-c1cccc(F)c1 — higher, 164 °C
- CC(C)Cn1c2c(c(=O)n(C)c1=O)C(=O)C(=Cc1cccnc1)S2 — higher, 215 to 216 °C
- O=C(Cc1c(F)cccc1C(=O)O)Nc1cccc(/C=C/c2nc(C3CCC3)cs2)c1 — higher, 221 to 222 °C
- CC(C)CCN1C(=O)C(NC(=O)Nc2ccccc2)C(=O)N(CC23CC4CC(CC(C4)C2)C3)c2ccccc21 (centres undefined) — higher, 156 to 157 °C
- COC(=O)C1CN(C)CCC1c1ccc(Cl)c(Cl)c1 (centres undefined) — higher, 70 to 75 °C
- O=C1c2ccccc2-c2[nH]c(=O)c(-c3ccccc3)nc21 — higher, > 300 °C
- CNc1cccc(C(C)=O)c1OCCCN1CCC(c2noc3cc(F)ccc23)CC1 — higher, 151 to 153 °C
- CCOC(OCC)[C@@H]1CCCN1C(=O)[C@@H]1CCCN1C(=O)OCc1ccccc1 — higher, 58.5 to 61 °C
- CN(CC(=O)Nc1ccc2[nH]ncc2c1)Cc1ccccc1 — higher, 159 to 160 °C
- CCN1CCN(C(C)C(=O)NC2(c3ccc4occc4c3)C(=O)Nc3cc(Cl)cc(Cl)c32)CC1 (single isomer, unassigned; (+)) — higher, 137 to 138 °C
- Cc1c(-c2ccccc2)nc(C(C)C)c(CO)c1-c1ccc(F)cc1 — higher, 182 to 184 °C
- N#Cc1ccc(CCC(N)=O)cc1 — higher, 220 °C
- CC(C)(O)Cn1c(CO)nc2c(N)nc3cc(OCc4ccccc4)ccc3c21 — higher, 284 to 286 °C
- CC(=O)OC1C(COC(=O)c2ccccc2)OC(n2cc(Cl)c(N)nc2=O)C1F (centres undefined) — higher, 233 °C
- CCCOc1ccccc1-c1nc(-c2nnn[nH]2)cc(=O)[nH]1 — higher, 219 to 221 °C
- CC(=O)Oc1cc(C(=O)O)cc([N+](=O)[O-])c1OC(C)=O — higher, 126 to 127 °C
